{"source": "ChEMBL document CHEMBL4130493", "about": "“An insight into the biological activities of heterocyclic-fatty acid hybrid molecules” (Eur J Med Chem, 2017)", "key": {"Mycobacterium avium": {"system": "Mycobacterium avium", "test": "Antimycobacterial activity against Mycobacterium avium", "assay_type": "functional"}, "[1]": {"system": "Mycobacterium tuberculosis", "test": "Antimycobacterial activity against Mycobacterium tuberculosis H37Rv assessed as reduction in mycobacterial growth incubated for 5 days by MTT assay", "assay_type": "functional", "settings": "120 h"}, "MCF7": {"system": "MCF7", "test": "Cytotoxicity in human MCF7 cells incubated for 48 hrs by MTT assay", "assay_type": "functional, cell-based", "settings": "MCF7, 48 h"}, "HeLa": {"system": "HeLa", "test": "Cytotoxicity in human HeLa cells incubated for 48 hrs by MTT assay", "assay_type": "functional, cell-based"}, "Hep 3B2": {"system": "Hep 3B2", "test": "Cytotoxicity in human Hep3B cells incubated for 48 hrs by MTT assay", "assay_type": "functional, cell-based"}, "Candida albicans [2]": {"system": "Candida albicans", "test": "Antifungal activity against Candida albicans by disc diffusion method", "assay_type": "functional"}, "Candida albicans [3]": {"system": "Candida albicans", "test": "Antifungal activity against Candida albicans IOA-109", "assay_type": "functional"}, "Escherichia coli [4]": {"system": "Escherichia coli", "test": "Antibacterial activity against Escherichia coli K-12 by disc diffusion method", "assay_type": "functional"}, "Staphylococcus aureus [5]": {"system": "Staphylococcus aureus", "test": "Antibacterial activity against Staphylococcus aureus MSSA 22 by disc diffusion method", "assay_type": "functional"}, "Bacillus subtilis [6]": {"system": "Bacillus subtilis", "test": "Antibacterial activity against Bacillus subtilis ATCC 6051 by disc diffusion method", "assay_type": "functional"}, "Salmonella typhimurium": {"system": "Salmonella typhimurium", "test": "Antibacterial activity against Salmonella typhimurium MTCC98 by disc diffusion method", "assay_type": "functional, Salmonella enterica subsp. enterica serovar Typhimurium"}, "Klebsiella pneumoniae": {"system": "Klebsiella pneumoniae", "test": "Antibacterial activity against Klebsiella pneumoniae incubated for 24 hrs by filter paper disc method", "assay_type": "functional"}, "Staphylococcus aureus [7]": {"system": "Staphylococcus aureus", "test": "Antibacterial activity against Staphylococcus aureus MSSA 22 incubated for 24 hrs by filter paper disc method", "assay_type": "functional"}, "Bacillus subtilis [8]": {"system": "Bacillus subtilis", "test": "Antibacterial activity against Bacillus subtilis MTCC 121 incubated for 24 hrs by filter paper disc method", "assay_type": "functional"}, "Candida albicans [9]": {"system": "Candida albicans", "test": "Antifungal activity against Candida albicans IOA-109 incubated for 18 to 48 hrs", "assay_type": "functional"}, "Escherichia coli [10]": {"system": "Escherichia coli", "test": "Antibacterial activity against Escherichia coli K-12 incubated for 24 hrs by filter paper disc method", "assay_type": "functional"}, "[11]": {"system": "Mycobacterium tuberculosis", "test": "Antimycobacterial activity against Mycobacterium tuberculosis XDR-TB", "assay_type": "functional"}, "[12]": {"system": "Mycobacterium tuberculosis", "test": "Antimycobacterial activity against Mycobacterium tuberculosis MDR-TB", "assay_type": "functional"}, "Staphylococcus aureus [13]": {"system": "Staphylococcus aureus", "test": "Antibacterial activity against Staphylococcus aureus at 50 ug/disc incubated for 18 hrs by disc diffusion method", "assay_type": "functional", "settings": "read-out: DIZ"}, "Candida albicans [14]": {"system": "Candida albicans", "test": "Antifungal activity against Candida albicans IOA-109 at 50 ug/disc incubated for 5 to 6 days by disc diffusion method", "assay_type": "functional", "settings": "read-out: DIZ"}}}
{"smiles": "CCCCCCCCc1cn(CC(=O)OCC)nn1", "values": [{"measurement": "MIC", "setting": "Mycobacterium avium", "result": 0.5, "unit": "µg/mL"}, {"measurement": "MIC", "setting": "[1]", "result": 0.5, "unit": "µg/mL"}]}
{"smiles": "CCCC/C=C\\CCC(O)CCCCCCC1=NNC2SCC(c3ccccc3)=NN12", "note": "(stereo not given)", "values": [{"measurement": "IC50", "setting": "MCF7", "result": 8.8, "unit": "µM"}, {"measurement": "IC50", "setting": "HeLa", "result": 6, "unit": "µM"}, {"measurement": "IC50", "setting": "Hep 3B2", "result": 7.36, "unit": "µM"}]}
{"smiles": "CCCCCC(O)/C=C\\CCCCCCCc1ccc(CCCCCCC/C=C\\C(O)CCCCC)o1", "note": "(stereo not given)", "values": [{"measurement": "diameter of the inhibition zone (DIZ)", "setting": "Candida albicans [2]", "result": 27, "unit": "mm"}]}
{"smiles": "C=CCCCCCCCCc1nc2ccccc2s1", "values": [{"measurement": "diameter of the inhibition zone (DIZ)", "setting": "Candida albicans [3]", "result": "16 - 20 mm"}]}
{"smiles": "C=CCCCCCCCCC1=NNC2SCC(c3ccccc3)=NN12", "note": "(stereo not given)", "values": [{"measurement": "IC50", "setting": "MCF7", "result": 10.3, "unit": "µM"}, {"measurement": "IC50", "setting": "HeLa", "result": 8.01, "unit": "µM"}, {"measurement": "IC50", "setting": "Hep 3B2", "result": 7.4, "unit": "µM"}]}
{"smiles": "C=CCCCCCCCCc1nnc(N)o1", "values": [{"measurement": "diameter of the inhibition zone (DIZ)", "setting": "Escherichia coli [4]", "result": "7 - 13 mm"}, {"measurement": "diameter of the inhibition zone (DIZ)", "setting": "Staphylococcus aureus [5]", "result": "7 - 13 mm"}, {"measurement": "diameter of the inhibition zone (DIZ)", "setting": "Bacillus subtilis [6]", "result": "7 - 13 mm"}, {"measurement": "diameter of the inhibition zone (DIZ)", "setting": "Salmonella typhimurium", "result": "7 - 13 mm"}]}
{"smiles": "CCCCC/C=C\\CCC(O)CCCCCCCc1nc2ccccc2c(=O)o1", "note": "(stereo not given)", "values": [{"measurement": "diameter of the inhibition zone (DIZ)", "setting": "Klebsiella pneumoniae", "result": "15 - 19 mm"}, {"measurement": "diameter of the inhibition zone (DIZ)", "setting": "Staphylococcus aureus [7]", "result": "15 - 19 mm"}, {"measurement": "diameter of the inhibition zone (DIZ)", "setting": "Bacillus subtilis [8]", "result": "15 - 19 mm"}, {"measurement": "diameter of the inhibition zone (DIZ)", "setting": "Candida albicans [9]", "result": "17 - 20 mm"}, {"measurement": "diameter of the inhibition zone (DIZ)", "setting": "Escherichia coli [10]", "result": "15 - 19 mm"}]}
{"smiles": "CCCCCCCCNc1cncc(C(=O)Nc2ccccc2)n1", "values": [{"measurement": "MIC", "setting": "[11]", "result": "16 to 32", "unit": "µM"}, {"measurement": "MIC", "setting": "[12]", "result": "16 to 32", "unit": "µM"}]}
{"smiles": "CCCCCCCC/C=C\\CCCCCCCc1nc2ccccc2s1", "values": [{"measurement": "diameter of the inhibition zone (DIZ)", "setting": "Candida albicans [3]", "result": "16 - 20 mm"}]}
{"smiles": "CCCCCCC(O)C/C=C\\CCCCCCCC1=NNC2SCC(c3ccccc3)=NN12", "note": "(stereo not given)", "values": [{"measurement": "IC50", "setting": "MCF7", "result": 8.59, "unit": "µM"}, {"measurement": "IC50", "setting": "HeLa", "result": 8.83, "unit": "µM"}, {"measurement": "IC50", "setting": "Hep 3B2", "result": 6.5, "unit": "µM"}]}
{"smiles": "CCCCCCCC/C=C\\CCCCCCCC(=O)n1nnc2ccccc21", "values": [{"measurement": "zone of inhibition at 50 µg/disc", "setting": "Staphylococcus aureus [13]", "result": "13 to 15", "unit": "mm"}, {"measurement": "zone of inhibition at 50 µg/disc", "setting": "Candida albicans [14]", "result": "13 to 15", "unit": "mm"}]}
{"smiles": "CCCCCCCCCCCCCCCc1ccc(CCCCCCCCCCCCCCC)o1", "values": [{"measurement": "diameter of the inhibition zone (DIZ)", "setting": "Candida albicans [2]", "result": 27, "unit": "mm"}]}
{"smiles": "CCCCCCCCCCCCCCCc1nc2ccccc2s1", "values": [{"measurement": "diameter of the inhibition zone (DIZ)", "setting": "Candida albicans [3]", "result": "16 - 20 mm"}]}
{"smiles": "C=CCCCCCCCCC(=O)n1nnc2ccccc21", "values": [{"measurement": "zone of inhibition at 50 µg/disc", "setting": "Staphylococcus aureus [13]", "result": "13 to 15", "unit": "mm"}, {"measurement": "zone of inhibition at 50 µg/disc", "setting": "Candida albicans [14]", "result": "13 to 15", "unit": "mm"}]}
{"smiles": "CCCCCCC(O)C/C=C\\CCCCCCCc1nnc(N)o1", "note": "(stereo not given)", "values": [{"measurement": "diameter of the inhibition zone (DIZ)", "setting": "Escherichia coli [4]", "result": "13 - 18 mm"}, {"measurement": "diameter of the inhibition zone (DIZ)", "setting": "Staphylococcus aureus [5]", "result": "13 - 18 mm"}, {"measurement": "diameter of the inhibition zone (DIZ)", "setting": "Bacillus subtilis [6]", "result": "13 - 18 mm"}, {"measurement": "diameter of the inhibition zone (DIZ)", "setting": "Salmonella typhimurium", "result": "13 - 18 mm"}]}
